Data taken from PubChem BioAssay (NCI).
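96-well plates; 48 h exposure; 5 concentrations. Endpoints by linear interpolation between flanking doses. Not reached: highest tested concentration assigned. GI50: concentration for 50% inhibition of growth. TGI: total growth inhibition.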

Experiments:
Assay in all cases: growth of human tumour cells (NCI), 48 h
[1] = test system: 786-0 renal
[2] = test system: A498 renal
[3] = test system: A549 NSCLC
[4] = test system: ACHN renal
[5] = test system: BT-549 breast
[6] = test system: CAKI-1 renal
[7] = test system: CCRF-CEM leukemia
[8] = test system: COLO 205 colon
[9] = test system: DU-145 prostate
[10] = test system: EKVX NSCLC
[11] = test system: HCC-2998 colon
[12] = test system: HCT-116 colon
[13] = test system: HCT-15 colon
[14] = test system: HL-60(TB) leukemia
[15] = test system: HOP-62 NSCLC
[16] = test system: HOP-92 NSCLC
[17] = test system: HS 578T breast
[18] = test system: HT29 colon
[19] = test system: IGROV1 ovarian
[20] = test system: K-562 leukemia
[21] = test system: KM12 colon
[22] = test system: LOX IMVI melanoma
[23] = test system: M14 melanoma
[24] = test system: MALME-3M melanoma
[25] = test system: MCF7 breast
[26] = test system: MDA-MB-231 breast
[27] = test system: MDA-MB-435
[28] = test system: MOLT-4 leukemia
[29] = test system: NCI-H226 lung
[30] = test system: NCI-H23 lung
[31] = test system: NCI-H460 lung
[32] = test system: NCI-H522 lung
[33] = test system: NCI/ADR-RES ovarian
[34] = test system: OVCAR-3 ovarian
[35] = test system: OVCAR-4 ovarian
[36] = test system: OVCAR-5 ovarian
[37] = test system: OVCAR-8 ovarian
[38] = test system: PC-3 prostate
[39] = test system: RXF 393 renal
[40] = test system: SF-268 CNS
[41] = test system: SF-295 CNS
[42] = test system: SF-539 CNS
[43] = test system: SK-MEL-2 melanoma
[44] = test system: SK-MEL-28 melanoma
[45] = test system: SK-MEL-5 melanoma
[46] = test system: SK-OV-3 ovarian
[47] = test system: SN12C renal
[48] = test system: SNB-19 CNS
[49] = test system: SNB-75 CNS
[50] = test system: SR leukemia
[51] = test system: SW-620 colon
[52] = test system: T-47D breast
[53] = test system: TK-10 renal
[54] = test system: U251 CNS
[55] = test system: UACC-257 melanoma
[56] = test system: UACC-62 melanoma
[57] = test system: UO-31 renal

O=S(=O)(Nc1cccc(Cl)c1)c1ccc(-c2cnc(C3CC3)o2)cc1
GI50 [1]: 3.9 µM | TGI [1]: 34.8 µM | GI50 [2]: 0.453 µM | TGI [2]: 9.03 µM | GI50 [3]: 1.35 µM | TGI [3]: 44 µM | GI50 [4]: 0.925 µM | TGI [4]: 37 µM | GI50 [5]: 1.25 µM | TGI [5]: 22.7 µM | GI50 [6]: 0.232 µM | TGI [6]: 14 µM | GI50 [7]: 0.624 µM | TGI [7]: > 100 µM | GI50 [8]: 0.639 µM | TGI [8]: 6.18 µM | GI50 [9]: 2.68 µM | TGI [9]: 29.1 µM | GI50 [10]: 2.88 µM | TGI [10]: 40.3 µM | GI50 [11]: 2.87 µM | TGI [11]: 17.1 µM | GI50 [12]: 0.48 µM | TGI [12]: 18.7 µM | GI50 [13]: 0.43 µM | TGI [13]: 20.3 µM | GI50 [14]: 0.388 µM | TGI [14]: 12.3 µM | GI50 [15]: 0.74 µM | TGI [15]: 16.3 µM | GI50 [16]: 1.74 µM | TGI [16]: 15.2 µM | GI50 [17]: 0.679 µM | TGI [17]: 16.6 µM | GI50 [18]: 0.372 µM | TGI [18]: 12.2 µM | GI50 [19]: 0.662 µM | TGI [19]: 21.6 µM | GI50 [20]: 0.305 µM | TGI [20]: 66 µM | GI50 [21]: 0.443 µM | TGI [21]: 16.6 µM | GI50 [22]: 0.617 µM | TGI [22]: 18.4 µM | GI50 [23]: 0.593 µM | TGI [23]: 24.3 µM | GI50 [24]: 10.3 µM | TGI [24]: 32 µM | GI50 [25]: 0.398 µM | TGI [25]: 51.6 µM | GI50 [26]: 2.45 µM | TGI [26]: 22 µM | GI50 [27]: 0.379 µM | TGI [27]: 16.7 µM | GI50 [28]: 0.657 µM | TGI [28]: 60.1 µM | GI50 [29]: 1.9 µM | TGI [29]: 17.2 µM | GI50 [30]: 2.14 µM | TGI [30]: 20.4 µM | GI50 [31]: 0.446 µM | TGI [31]: 16.7 µM | GI50 [32]: 0.509 µM | TGI [32]: 16.2 µM | GI50 [33]: 0.581 µM | TGI [33]: 17 µM | GI50 [34]: 0.417 µM | TGI [34]: 12.3 µM | GI50 [35]: 2.92 µM | TGI [35]: 16.7 µM | GI50 [36]: 2.39 µM | TGI [36]: 18.3 µM | GI50 [37]: 1.95 µM | TGI [37]: 32.9 µM | GI50 [38]: 0.668 µM | TGI [38]: 17.6 µM | GI50 [39]: 0.835 µM | TGI [39]: 10.9 µM | GI50 [40]: 3.28 µM | TGI [40]: 25.2 µM | GI50 [41]: 0.394 µM | TGI [41]: 12 µM | GI50 [42]: 0.683 µM | TGI [42]: 11.8 µM | GI50 [43]: 0.695 µM | TGI [43]: 20.3 µM | GI50 [44]: 10.2 µM | TGI [44]: 23 µM | GI50 [45]: 2.01 µM | TGI [45]: 14.4 µM | GI50 [46]: 5.41 µM | TGI [46]: 24.9 µM | GI50 [47]: 1.62 µM | TGI [47]: 20.9 µM | GI50 [48]: 1.31 µM | TGI [48]: 35.8 µM | GI50 [49]: 0.208 µM | TGI [49]: 1.96 µM | GI50 [50]: 0.409 µM | TGI [50]: 32.4 µM | GI50 [51]: 0.409 µM | TGI [51]: 31.3 µM | GI50 [52]: 0.519 µM | TGI [52]: 22 µM | GI50 [53]: 5.11 µM | TGI [53]: 26.5 µM | GI50 [54]: 0.768 µM | TGI [54]: 19.8 µM | GI50 [55]: 6.98 µM | TGI [55]: 30.2 µM | GI50 [56]: 0.47 µM | TGI [56]: 15.3 µM | GI50 [57]: 1.68 µM | TGI [57]: 18.8 µM
